Results from patent publication US20260297136A1, “PEPTIDES WITH LIPOLYTIC, ANTI-LIPOGENIC, ANTIFIBROTIC AND ANTI-INFLAMMATORY ACTIVITY” (FUNDACIÓ HOSPITAL UNIVERSITARI VALL D'HEBRON - INSTITUT DE …, priority 2023, published 2026).

Legend:
Type in all cases: cell-based, human
[1] = tested on: HepG2 cells; experiment: Hepatic lipogenesis in HepG2 cells induced by 30 mM fructose (ACC and PPARγ mRNA), Example 3; settings: 5 days
Protocol: FIG. 2. Human hepatoblastoma cell line HepG2 was treated with vehicle (DMSO) in the absence or presence of 30 mM fructose and Telmisartan (5 μg/ml), Semaglutide (10 nM) or GP6 (10 or 40 μg/ml) for 5 days. RNA was extracted and mRNA levels of Acetyl-CoA Carboxylase (ACC) (panel A) and Peroxisome proliferator-activated receptor gamma (PPARγ) (panel B) relative to 18S were measured by RTPCR.
Cell culture reagents were from Life Technologies Inc (Invitrogen SA, Barcelona, Spain). HepG2 hepatoblastoma cells (cat. no. HB-8065; ATCC, LGC Standards SLU, Barcelona, Spain) were maintained in Dulbecco's modified Eagle medium (DMEM) supplemented with 10% fetal bovine serum and antibiotics. HepG2 cells were cultured for 5 day in the absence or presence of 30 mM fructose. Cells cultured in 30 mM fructose were daily treated with vehicle, Telmisartan, Semaglutide or GP6. LX-2 human hepatic stellate cells (SCC064) were maintained in DMEM supplemented with 2% fetal bovine serum and antibiotics. For experiments, LX-2 were cultured for 24 h in DMEM 0.2% FBS and treated for 24 h with vehicle or TGFβ1 (20 ng/ml) in the absence or presence of GP6 (10 or 40 μg/ml). At the end of the experiment's cells were harvested for gene expression analysis.
Total RNA was extracted from HepG2 and LX-2 cells using TRIzol reagent (Invitrogen SA). Reverse transcription was performed at 42° C. for 50 minutes using […] of total RNA, 200 U of Superscript II, and an oligo-dT primer and reagents provided by Invitrogen. […] Results were analyzed using the 7000 Sequence Detection System program (Applied Biosystems, Thermo Fisher Scientific, Barcelona, Spain) (Sex Hormone-Binding Globulin Reduction in Metabolic Disorders May Play a Role in NAFLD Development.Saez-Lopez C, Barbosa-Desongles A, Hernandez C, Dyer R A, Innis S M, Simo R, Selva D M. Endocrinology. 2017 Mar. 1; 158(3):545-559. doi: 10.1210/en.2016-1668).

[2] = tested on: LX-2 cells; experiment: Fibrosis in LX-2 cells: Col1A1 mRNA induced by TGFβ1, Example 7; settings: 24 h
Protocol: FIG. 33. Effect of different peptides and SHBG on fibrosis in LX-2 cells.
LX-2 human hepatic stellate cells (SCC064) were maintained in DMEM supplemented with 2% fetal bovine serum and antibiotics. For experiments, LX-2 were cultured for 24 h in DMEM 0.2% FBS and treated for 24 h with vehicle or TGFβ1 (20 ng/ml) in the absence or presence of EDL6D (10 or 40 μg/ml). At the end of the experiment's cells were harvested for gene expression analysis.
(§1) Total RNA was extracted from HepG2 and LX-2 cells using TRIzol reagent (Invitrogen SA). Reverse transcription was performed at 42° C. for 50 minutes using […] of total RNA, 200 U of Superscript II, and an oligo-dT primer and reagents provided by Invitrogen. An aliquot of the reverse transcription product was amplified in a […] reaction using SYBRGreen (Invitrogen SA) with appropriate oligonucleotide primer pairs corresponding to human SHBG, ACC, FAS, ACLY, PPARG, and 18S and mouse ACC, FAS, ACLY, PPARG, Col1A1 and 18S. Results were analyzed using the 7000 Sequence Detection System program (Applied Biosystems, Thermo Fisher Scientific, Barcelona, Spain) (Shez-Lopez et al Endocrinology 2017).

[3] = tested on: HepG2 cells; experiment: Hepatic lipogenic key enzymes in HepG2 cells in the presence of 30 mM fructose (2 h), Example 7; settings: 40 μg/ml
Protocol: FIG. 34. Effects of different peptides and SHBG in reducing hepatic lipogenic key enzymes in the presence of 30 mM fructose. Each bar within each group represents mRNA levels of a key hepatic lipogenic enzyme, from left to right: Acetyl-CoA Carboxylase (ACC), ATP Citrate Lyase (ACLY) and Fatty Acid Synthase (FAS), and a key transcription factor regulating several lipogenic enzymes such as PPARγ (PPARγ).
Cell culture reagents were from Life Technologies Inc (Invitrogen SA, Barcelona, Spain). HepG2 hepatoblastoma cells (cat. no. HB-8065; ATCC, LGC Standards SLU, Barcelona, Spain) were maintained in Dulbecco's modified Eagle medium (DMEM) supplemented with 10% fetal bovine serum and antibiotics.
• HepG2 cells were cultured for 5 day in the absence or presence of 30 mM fructose. Cells cultured in 30 mM fructose were daily treated with vehicle, Telmisartan, Semaglutide or EDL6D. • HepG2 cells were cultured for 24 h in the absence or presence of GP6 (40 μg/ml), GP10 (40 μg/ml), GP11 (40 μg/ml), GP12 (40 μg/ml), GP13 (40 μg/ml) or SHBG (20 nM). • HepG2 cells were cultured in the absence or presence of 30 mM fructose and treated for 2 h with vehicle or GP4 (40 μg/ml), GP6 (40 μg/ml), GP7 (40 μg/ml), GP8 (40 μg/ml), GP9 (40 μg/ml), GP10 (40 μg/ml), GP11 (40 μg/ml), GP12 (40 μg/ml), GP13 (40 μg/ml) or SHBG (20 nM).
as §1

Question: What does the source list for `CC[C@@H](C)[C@@H](NC(=O)[C@H](NC(=O)CNC(=O)[C@@H](CCC(=O)O)NC(=O)[C@H]1CCCN1C(=O)[C@@H](CC(=O)O)NC(=O)[C@@H](Cc1c[nH]c2ccccc12)NC(=O)[C@H](NC(=O)[C@@H](CCCNC(=N)N)NC(=O)[C@H](NC(=O)[C@@H](CCC(=O)O)NC(=O)[C@@H](Cc1ccccc1)NC(=O)[C@@H](CO)NC(=O)[C@@H](CO)NC(=O)[C@@H](CO)NC(=O)[C@H](NC(=O)[C@@H](CCCCN)NC(=O)[C@H](N)[C@H](C)O)[C@H](C)O)C(C)C)[C@H](C)O)C(C)C)C(=O)N[C@H](Cc1ccccc1)C(=O)N[C@H](Cc1ccc(O)cc1)C(=O)O` [GP6]?
Answer: effectiveness in reducing the induced expression of ACC and PPARγ versus positive controls ([1]; GP6 10 or 40 μg/ml versus Telmisartan 5 μg/ml and Semaglutide 10 nM, 30 mM fructose): significantly much more effective than Telmisartan and Semaglutide; ACC mRNA levels induced by 30 mM fructose ([1]; GP6 10 or 40 μg/ml, daily): reducing mRNA levels; PPARγ mRNA levels induced by 30 mM fructose ([1]; GP6 10 or 40 μg/ml, daily): reducing mRNA levels; mRNA levels of collagen 1A1 induced by TGFβ1 [2]: reduced the mRNA levels; fructose-induced expression of ACC [3]: able to reduce; fructose-induced expression of ACLY [3]: able to reduce; fructose-induced expression of FAS [3]: able to reduce; fructose-induced expression of PPARγ [3]: able to reduce
